Measurements from PMC9503767, “Site-Differentiated Iron–Sulfur Cluster Ligation Affects Flavin-Based Electron Bifurcation Activity” (Metabolites, 2022).

Molecular target: T1, NfnL (large subunit of NADH-dependent reduced-ferredoxin: NADP+ oxidoreductase NfnSL) (Pyrococcus furiosus, UniProt Q8U195, E126C)
T1 construct: gene sudA; isolated NfnL subunit
Assay: intrinsic protein fluorescence quenching titration (ex […] nm, em […] nm), quadratic tight-binding fit

T1 sequence (Q8U195 whole entry E126C): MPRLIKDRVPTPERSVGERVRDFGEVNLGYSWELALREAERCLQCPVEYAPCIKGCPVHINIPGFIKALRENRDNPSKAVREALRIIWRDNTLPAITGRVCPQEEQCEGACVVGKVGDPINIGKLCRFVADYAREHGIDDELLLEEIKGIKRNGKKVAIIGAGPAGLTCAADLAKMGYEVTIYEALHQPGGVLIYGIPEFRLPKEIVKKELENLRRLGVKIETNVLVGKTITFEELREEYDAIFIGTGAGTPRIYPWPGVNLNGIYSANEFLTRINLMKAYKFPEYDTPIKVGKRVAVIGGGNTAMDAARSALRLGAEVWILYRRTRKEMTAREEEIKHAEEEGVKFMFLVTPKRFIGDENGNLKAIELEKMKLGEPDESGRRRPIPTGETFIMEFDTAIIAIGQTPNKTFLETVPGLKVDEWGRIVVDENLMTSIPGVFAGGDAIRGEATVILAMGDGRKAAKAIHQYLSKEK

Row | SMILES | Kd [µM]
1 | NC(=O)c1ccc[n+]([C@@H]2O[C@H](COP(=O)([O-])OP(=O)(O)OC[C@H]3O[C@@H](n4cnc5c(N)ncnc54)[C@H](OP(=O)(O)O)[C@@H]3O)[C@@H](O)[C@H]2O)c1 [NADP+] | 2.6 ± 0.6
2 | NC(=O)C1=CN([C@@H]2O[C@H](COP(=O)(O)OP(=O)(O)OC[C@H]3O[C@@H](n4cnc5c(N)ncnc54)[C@H](OP(=O)(O)O)[C@@H]3O)[C@@H](O)[C@H]2O)C=CC1 [NADPH] | 2.6 ± 0.6
